From patent US20250360122A1, “USE OF NAMPT INHIBITORS IN THE MANUFACTURE OF MEDICAMENTS FOR PREVENTING AND/OR TREATING PIGMENTED VILLONODULAR SYNOVITIS” (WEST CHINA HOSPITAL, SICHUAN UNIVERSITY, priority 2024, published 2025)

How the values were obtained:
Assay type in all cases: in vivo, female NOD-SCID mice
PVNS grafts [1] = assay: PVNS-PDX tumor model, tumor growth / final tumor size; conditions: PVNS-PDX mice, 14 days of FK866 treatment, 30 mg/kg i.p.
Text: (§1) A PVNS-human-derived tissue xenograft (PDX) tumor model was established using female NOD-SCID gnotobiotic mice aged 5 to 6 weeks. The human-derived tissue was sourced from the tumor tissue of patients with a confirmed diagnosis of PVNS who underwent surgery. During the surgery, viable synovial tissue was collected and then transplanted to construct the PVNS-PDX tumor model. The mice were purchased from Vital River Laboratory Animal Technology Co., Ltd. (Beijing, China) and were housed in micro-isolator cages under specific pathogen-free conditions. Tumor grafts were prepared using sterile SmartFlow (Airtech, China). After removing the necrotic tissue, the tumor tissue was rinsed three times with physiological saline. Subsequently, the tumor mass was segmented into small pieces (diameter ranging from 1.0 to 3.0 mm) using a surgical blade. The tumor tissue (graft) was suspended in serum-free Dulbecco's Modified Eagle Medium and then cryopreserved for implantation. The surgery was carried out by using an anesthesia machine. Mice were anesthetized with 2.5% isoflurane and kept in a lateral position. The skin was sterilely prepared using surgical-grade povidone-iodine, and a small dorsal midline incision (approximately 20.0 mm) was made in the kidney area. […] Tumor size was measured under a microscope and calculated using the formula […], where L is the length and W is the width.

JUND [2] = assay: Western blot of JUND in synovium of PVNS-PDX mice; conditions: FK866 30 mg/kg i.p. twice daily, four consecutive days weekly, two weeks, compared to the PDX group
Text: A PVNS-human-derived tissue xenograft (PDX) tumor model was established using female NOD-SCID gnotobiotic mice aged 5 to 6 weeks. The human-derived tissue was sourced from the tumor tissue of patients with a confirmed diagnosis of PVNS who underwent surgery. During the surgery, viable synovial tissue was collected and then transplanted to construct the PVNS-PDX tumor model. The mice were purchased from Vital River Laboratory Animal Technology Co., Ltd. (Beijing, China) and were housed in micro-isolator cages under specific pathogen-free conditions. Tumor grafts were prepared using sterile SmartFlow (Airtech, China). After removing the necrotic tissue, the tumor tissue was rinsed three times with physiological saline. […] Tumor size was measured under a microscope and calculated using the formula […], where L is the length and W is the width.
Synovial tissue lysates were prepared using RIPA buffer supplemented with PMSF, incubated on ice, and physically sheared for 25 min. The proteins were extracted, and their concentration was measured using the BCA protein assay kit (Beyotime, P0011). […] Band intensity was quantified using ImageJ software version 1.39 V. The primary antibodies used were: anti-NAMPT (1:1000, ABclonal, A0256); anti-ITGA5 (1:1000, ABclonal, A19069); anti-JUND (1:1000, ABclonal, A5496); and anti-β-actin (1:1000, ABclonal, AC006).

JUND [3] = assay: Immunohistochemistry of JUND in PVNS-PDX mice; conditions: FK866 30 mg/kg i.p. twice daily, four consecutive days weekly, two weeks, compared to the PDX group
Text: as §1, with “machine.” for “machine. Mice were anesthetized with 2.5% isoflurane and kept in a lateral position. The skin was sterilely prepared using surgical-grade povidone-iodine, and a small dorsal midline incision (approximately 20.0 mm) was made in the kidney area.”
The synovial tissue was fixed in 10% neutral buffered formalin for two days, followed by dehydration with a series of graded ethanol. […] The integrated optical density values of positive staining were evaluated using ImageJ software.

PVNS grafts [4] = assay: Vascular permeability assay (Evans blue) in PVNS grafts; conditions: PVNS-PDX mice, after 14 days of FK866 30 mg/kg i.p.; mean±S.E.M.; p<0.001 vs. PDX group (14.93±2.003)
Text: as §1, with “machine.” for “machine. Mice were anesthetized with 2.5% isoflurane and kept in a lateral position. The skin was sterilely prepared using surgical-grade povidone-iodine, and a small dorsal midline incision (approximately 20.0 mm) was made in the kidney area.”
[…] The concentration of Evans blue in the tissue extract was measured using a microplate reader at a wavelength of 630 nm and a standard curve of Evans blue concentration. […]

fibrinogen (FGB) = assay: Immunofluorescence staining of FGB and CD31 in PVNS-PDX mice; conditions: FK866 30 mg/kg i.p., in contrast to the PDX group
Text: as §1, with “machine.” for “machine. Mice were anesthetized with 2.5% isoflurane and kept in a lateral position. The skin was sterilely prepared using surgical-grade povidone-iodine, and a small dorsal midline incision (approximately 20.0 mm) was made in the kidney area.”
The frozen tissue sections were thawed at room temperature for 1 hour. […] The tissue sections were observed using a fluorescence microscope, and the fluorescence intensity was assessed using ImageJ. […]

## O=C(/C=C/c1cccnc1)NCCCCC1CCN(C(=O)c2ccccc2)CC1 [FK866]
PVNS grafts [1]
  Tumor growth: significantly inhibited
JUND [2]
  JUND expression (WB analysis): significant decrease
JUND [3]
  JUND expression (IHC staining): notable reduction
PVNS grafts [4]
  Evan's blue dye concentration in PVNS grafts (vascular leakage): 4.040±1.618 ng Evan's blue dye/mg tissue
Fibrinogen (FGB)
  FGB deposition around the blood vessels (immunofluorescence): significantly reduced
